Laboratory results from patent US10202343B2, “MIF modulators” (YALE UNIVERSITY, priority 2008, dated 2019).
Read-outs that look alike come from different tables or passages of the source.

Key:
[1] = target: T1, MIF-CD74 Binding (biotin-labeled recombinant human MIF, recombinant human MIF receptor CD74 ectodomain) (Homo sapiens, UniProt P14174); assay: MIF-CD74 binding (capture) assay; parameters: concentration of C74 % MaxInhib (number after @): unit not given here; conditions: for CD74 % MaxInhib / C74 % MaxInhib: number before @; for concentration of C74 % MaxInhib (number after @) / C74 % MaxInhib: Table 18; for Capture IC50 / Capture % Max. Inhib.: Table 3
T1 sequence (P14174 2-115 limits assumed): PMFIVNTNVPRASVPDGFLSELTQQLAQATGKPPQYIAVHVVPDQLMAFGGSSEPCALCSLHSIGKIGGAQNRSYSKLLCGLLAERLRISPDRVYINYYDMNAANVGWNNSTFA

[2] = target: T2, Human MIF (MIF tautomerase activity) (Homo sapiens, UniProt P14174); assay: HPP tautomerase assay; assay type: biochemical; conditions: for IC50: read-out: HPP IC50
T2 construct: made in house
T2 sequence (P14174 2-115 limits assumed): T1 sequence (P14174 2-115 limits assumed)
Experimental: The HPP assay used was adapted to the microtiter plate format. […] Dilutions of the enzyme were prepared in 50 mM sodium phosphate buffer, 1 mM EDTA, pH 6.5. HPP was obtained from Aldrich. A stock solution of 60 mM HPP in ethanol is prepared and kept for maximally 4 hours on ice. The working solution (600 μM) of the substrate was prepared by diluting an aliquot of the stock solution with 50 mM sodium phosphate buffer, 1 mM EDTA, pH 6.5. […] Inhibitor and enzyme solutions were pipetted manually using an Eppendorf 12-channel pipette. Addition of substrate to start the reaction was performed with an Igel 96 pipetting station (OpalJena, Jena, Germany), which allows simultaneous addition of fluid to all 96 wells of the plates. Optical density (OD) was determined using a SPECTRAmax 250 reader (Molecular Devices). The reader was operated with the SoftmaxPro 2.6.1 software. Assay: Three wells of the microtiter plates were filled with buffer only, to allow for blanking. […] The last step was performed using the 96-channel pipetting device. The plate was then immediately (i.e. within a few seconds) transferred manually to the SPECTRAmax 250 reader and the optical density was determined (310 nm). From the data obtained, IC50 values were calculated using Excel® and XLfit® software.

[3] = Table 13, data cell c5, number before @
[4] = Table 7, data cell c6, number before @
[5] = Table 19, data cell c5, read-out: CD74 IC50

Structure (SMILES): O=C(c1cc2ccccc2o1)N1CCc2cc(F)ccc21 [MIF-096]
- concentration of CD74 % MaxInhib (number after @) ([1]; Table 14): 1.87 µM
- CD74 % MaxInhib ([1]; Table 14): 19%
- IC50 ([2]; Table 14): 1360 µM

Structure (SMILES): COc1cccc(Cc2cn(-c3ccc(O)cc3)nn2)c1 [MIF-074]
- concentration of C74 % MaxInhib (number after @) [1]: 0.24
- C74 % MaxInhib [1]: 8%
- concentration of HPP Max Inhib (number after @) ([2]; Table 18): 1000
- HPP Max Inhib ([2]; Table 18, number before @): 40%

Structure (SMILES): Fc1ccc2nn(-c3ccc(Cl)cc3)cc2c1 [MIF-129]
- concentration of CD74 % MaxInhib (number after @) ([1]; Table 11): 0.12 µM
- CD74 % MaxInhib ([1]; Table 11): 27%
- IC50 ([2]; Table 11): 490 µM

Structure (SMILES): O=C(c1cc2ccccc2o1)c1cc2cc(O)ccc2o1 [MIF-072]
- concentration of CD74 % MaxInhib (number after @) ([1]; Table 13): 0.24 µM
- CD74 % MaxInhib ([1]; Table 13): 9%
- concentration of HPP Max Inhib (number after @) ([2]; Table 13): 1000 µM
- HPP Max Inhib [2, 3]: 30%

Structure (SMILES): Clc1ccc(-c2nc3ccc(Cl)cc3o2)cc1 [MIF-121]
- concentration of CD74 % MaxInhib (number after @) ([1]; Table 7): 0.078 µM
- CD74 % MaxInhib ([1]; Table 7, data cell c7): 27%
- HPP % MaxInhib [2, 4]: 43%

Structure (SMILES): Oc1ccc(-n2cc(Cc3ccccc3)nn2)cc1F [MIF-069]
- concentration of C74 % MaxInhib (number after @) [1]: 0.0078
- C74 % MaxInhib [1]: 14%
- IC50 ([2]; Table 18): 760 µM

Structure (SMILES): N#Cc1ccc2sn(-c3ccc(Cl)cc3)c(=O)c2c1 [Compound 40]
- Capture IC50 [1]: agonist
- CD74 IC50 ([1]; Table 6, data cell c9): agonist
- IC50 ([2]; Table 3): 19 µM
- IC50 ([2]; Table 6, data cell c7): 19 µM

Structure (SMILES): Cc1ccc2c(c1)N(C(=O)c1cc3ccccc3o1)CC2 [MIF-095]
- concentration of CD74 % MaxInhib (number after @) ([1]; Table 14): 0.039 µM
- CD74 % MaxInhib ([1]; Table 14): 33%
- IC50 ([2]; Table 14): 910 µM

Structure (SMILES): COc1cccc(Cn2c(=O)oc3ccc(C)cc32)c1 [Compound 5]
- concentration of CD74 % MaxInhib (number after @) ([1]; Table 4): 1.87 µM
- CD74 % MaxInhib ([1]; Table 4): 42%
- IC50 ([2]; Table 1): 2.9 µM

Structure (SMILES): COCCc1nc2ccccc2n1Cc1ccccc1 [MIF-066]
- concentration of CD74 % MaxInhib (number after @) ([1]; Table 5): 1.87 µM
- CD74 % MaxInhib ([1]; Table 5): 25%
- HPP Max Inhib ([2]; Table 5): 18%

Structure (SMILES): Cc1cccc(Cc2cn(-c3ccc(O)cc3)nn2)c1 [MIF-079]
- concentration of C74 % MaxInhib (number after @) [1]: 0.078
- C74 % MaxInhib [1]: 30%
- IC50 ([2]; Table 18): 475 µM

Structure (SMILES): Clc1ccc(-c2nc3cc(Cl)ccc3o2)cc1 [MIF-122]
- concentration of CD74 % MaxInhib (number after @) ([1]; Table 7): 3.76 µM
- CD74 % MaxInhib ([1]; Table 7, data cell c7): 13%
- HPP % MaxInhib [2, 4]: 31%

Structure (SMILES): O=c1c2ccc(F)c(F)c2sn1-c1ccc(Cl)cc1 [MIF-134]
- concentration of CD74 % MaxInhib (number after @) ([1]; Table 6): 3.76 µM
- CD74 % MaxInhib ([1]; Table 6, data cell c8): 11%
- IC50 ([2]; Table 6, data cell c7): 5.6 µM

Structure (SMILES): COc1cccc(Cn2c(=O)oc3ccc(CO)cc32)c1 [Compound 4, 5-hydroxymethyl-3-(3-methoxy-benzyl)-3H-benzooxazol-2-one]
- concentration of CD74 % MaxInhib (number after @) ([1]; Table 4): 0.039 µM
- CD74 % MaxInhib ([1]; Table 4): 27%
- HPP Max Inhib ([2]; Table 1): 44%
- concentration of HPP Max Inhib (number after @) ([2]; Table 4): 200 µM

Structure (SMILES): CNC(=O)c1nc2ccccc2n1Cc1ccccc1 [MIF-065]
- concentration of CD74 % MaxInhib (number after @) ([1]; Table 5): 1.87 µM
- CD74 % MaxInhib ([1]; Table 5): 16%
- HPP Max Inhib ([2]; Table 5): 13%

Structure (SMILES): Oc1ccc(-n2cc(-c3cncc4ccccc34)nn2)cc1 [MIF-021]
- IC50 ([1]; Table 21, column beside HPP IC50): Agonist
- HPP IC50 ([2]; Table 21): agonist

Structure (SMILES): O=c1c2cc(F)c(F)cc2sn1-c1ccc(Cl)cc1 [MIF-143]
- CD74 IC50 ([1]; Table 6, data cell c9): agonist
- IC50 ([2]; Table 6, data cell c7): 4.9 µM

Structure (SMILES): COc1ccccc1-n1sc2ccc(Cl)cc2c1=O [Compound 31]
- Capture % Max. Inhib. [1]: 7%
- CD74 % MaxInhib ([1]; Table 6, data cell c8): 7%
- IC50 ([2]; Table 3): 6.6 µM
- IC50 ([2]; Table 6, data cell c7): 6.6 µM

Structure (SMILES): O=c1c2ccc(F)cc2sn1-c1cccc(Cl)c1 [MIF-132]
- concentration of CD74 % MaxInhib (number after @) ([1]; Table 6): 0.078 µM
- CD74 % MaxInhib ([1]; Table 6, data cell c8): 20%
- IC50 ([2]; Table 6, data cell c7): 5 µM

Structure (SMILES): COC(=O)c1cccc(Cn2cc(-c3ccc(O)cc3)nn2)c1 [MIF-036]
- IC50 [1, 5]: 1.2 µM
- IC50 ([2]; Table 19, data cell c6): 2.5 µM

Structure (SMILES): c1ccc(Cn2c(Cc3ccccn3)nc3ccccc32)cc1 [Compound 19]
- concentration of CD74 % MaxInhib (number after @) ([1]; Table 5): 1.87 µM
- CD74 % MaxInhib ([1]; Table 5): 40%
- HPP Max. Inhib. ([2]; Table 2): 38%

Structure (SMILES): O=C(c1cc2ccccc2o1)c1cc2cc(F)ccc2o1 [MIF-073]
- concentration of CD74 % MaxInhib (number after @) ([1]; Table 13): 0.12 µM
- CD74 % MaxInhib ([1]; Table 13): 17%
- concentration of HPP Max Inhib (number after @) ([2]; Table 13): 700 µM
- HPP Max Inhib [2, 3]: 33%

Structure (SMILES): Clc1ccc2nc(-c3ccccc3)oc2c1 [MIF-120]
- concentration of CD74 % MaxInhib (number after @) ([1]; Table 7): 0.078 µM
- CD74 % MaxInhib ([1]; Table 7, data cell c7): 11%
- concentration of HPP % MaxInhib (number after @) ([2]; Table 7): 0.1 µM
- HPP % MaxInhib [2, 4]: 13%

Structure (SMILES): COc1ccc2cc(C(=O)N3CCc4ccccc43)oc2c1 [MIF-083]
- concentration of CD74 % MaxInhib (number after @) ([1]; Table 14): 0.078 µM
- CD74 % MaxInhib ([1]; Table 14): 12%
- concentration of HPP Max Inhib (number after @) ([2]; Table 14): 3 µM
- HPP Max Inhib ([2]; Table 14, number before @): 33%

Structure (SMILES): COc1ccccc1Cn1cc(-c2ccc(O)cc2)nn1 [MIF-033]
- CD74 IC50 ([1]; Table 19, data cell c5): agonist
- HPP IC50 ([2]; Table 19, data cell c6): agonist

Structure (SMILES): COC(=O)CC1CC(c2ccc(O)cc2)=NO1 (stereo not shown) [ISO-1, reference compound]
- activity in the capture assay [1]: inactive
- activity in the HPP tautomerase assay [2]: inactive

Structure (SMILES): O=c1c2ccc(Br)cc2sn1-c1ccc(Cl)cc1 [Compound 36]
- Capture % Max. Inhib. [1]: 10%
- CD74 % MaxInhib ([1]; Table 6, data cell c8): 10%
- IC50 ([2]; Table 3): 11 µM
- IC50 ([2]; Table 6, data cell c7): 11 µM

Structure (SMILES): Cc1ccc2nc(-c3ccccc3)sc2c1 [MIF-138]
- concentration of CD74 % MaxInhib (number after @) ([1]; Table 8): 0.078 µM
- CD74 % MaxInhib ([1]; Table 8): 20%
- HPP IC50 ([2]; Table 8): agonist

Structure (SMILES): c1ccc(Cn2c(-c3cscn3)nc3ccccc32)cc1 [Compound 17, 4-(1-benzyl-1H-benzo[d]imidazol-2-yl)thiazole]
- concentration of CD74 % MaxInhib (number after @) ([1]; Table 5): 0.039 µM
- IC50 ([1]; Table 5, read-out: CD74 IC50): > 1000 µM
- concentration of HPP Max Inhib (number after 'at') ([2]; Table 5): 5 µM

Structure (SMILES): O=c1c2cc([N+](=O)[O-])ccc2sn1-c1ccc(Cl)cc1 [Compound 34]
- Capture % Max. Inhib. [1]: 11%
- CD74 % MaxInhib ([1]; Table 6, data cell c8): 11%
- IC50 ([2]; Table 3): 6.2 µM
- IC50 ([2]; Table 6, data cell c7): 6.2 µM

Structure (SMILES): COc1cccc(Cn2c(=O)oc3ccc(OC)cc32)c1 [Compound 3, 5-methoxy-3-(3-methoxy-benzyl)-3H-benzooxazol-2-one]
- concentration of CD74 % MaxInhib (number after @) ([1]; Table 4): 1.87 µM
- concentration of HPP Max Inhib (number after @) ([2]; Table 4): > 500 µM
- HPP Max Inhib ([2]; Table 4, number before @): 41%

Structure (SMILES): Fc1ccc2[nH]c(-c3ccc(Cl)cc3)nc2c1 [MIF-130]
- concentration of CD74 % MaxInhib (number after @) ([1]; Table 12): 0.34 µM
- CD74 % MaxInhib ([1]; Table 12): 21%
- HPP % MaxInhib ([2]; Table 12, number before @): 28%

Structure (SMILES): O=c1oc2cc(O)ccc2n1Cc1ccccc1 [Compound 14]
- concentration of CD74 % MaxInhib (number after @) ([1]; Table 4): 0.039 µM
- CD74 % MaxInhib ([1]; Table 4): 22%
- HPP Max Inhib ([2]; Table 1): 28%
- concentration of HPP Max Inhib (number after @) ([2]; Table 4): 5 µM

Structure (SMILES): COc1ccc(Cc2cn(-c3ccc(O)cc3)nn2)cc1OC [MIF-090]
- concentration of C74 % MaxInhib (number after @) [1]: 0.078
- C74 % MaxInhib [1]: 22%
- IC50 ([2]; Table 18): 70 µM

Structure (SMILES): N#Cc1ccc(-n2sc3cc(F)ccc3c2=O)cc1 [MIF-133]
- concentration of CD74 % MaxInhib (number after @) ([1]; Table 6): 0.078 µM
- IC50 ([2]; Table 6, data cell c7): 6.4 µM

Structure (SMILES): COc1cccc(-n2sc3ccc(F)cc3c2=O)c1 [Compound 38]
- Capture IC50 [1]: agonist
- CD74 IC50 ([1]; Table 6, data cell c9): agonist
- IC50 ([2]; Table 3): 8 µM
- IC50 ([2]; Table 6, data cell c7, listed as MIF-113): 8 µM

Structure (SMILES): O=c1c2ccc(F)cc2sn1-c1ccc(Cl)cc1 [Compound 26]
- Capture IC50 [1]: agonist
- CD74 IC50 ([1]; Table 6, data cell c9): agonist
- IC50 ([2]; Table 3): 4.2 µM
- IC50 ([2]; Table 6, data cell c7): 4.2 µM

Structure (SMILES): CC(=O)Oc1ccc2nc(-c3cc4ccccc4o3)oc(=O)c2c1 [Compound 22]
- IC50 ([1]; Table 2, read-out: MIF-CD74 IC50): 2.5 µM
- IC50 ([1]; Table 5, read-out: CD74 IC50): 2.5 µM
- IC50 ([1]; Table 15, read-out: CD74 IC50): 2.5 µM
- IC50 ([2]; Table 15): 730 µM

Structure (SMILES): COc1cccc(C(=O)c2cn(-c3ccc(O)cc3)nn2)c1 [MIF-076]
- concentration of C74 % MaxInhib (number after @) [1]: 0.0078
- C74 % MaxInhib [1]: 12%
- IC50 ([2]; Table 18): 790 µM

Structure (SMILES): COc1cccc(Cn2cc(-c3ccc(O)cc3)nn2)c1OC [MIF-034]
- IC50 [1, 5]: 1.2 µM
- IC50 ([2]; Table 19, data cell c6): 0.5 to 1 µM
